Each compound was assayed against T1, human RORgT (Homo sapiens, UniProt P51449) (assay: RORgT Gal4 Luciferase Reporter Gene Assay). Settings: engineered Jurkat cells overexpressing RORgT (LBD or full length) fused with Gal4 Luc reporter; 18 hours incubation.
T1 construct: expressed in transfected cells; host or cells: engineered Jurkat cells (Jurkat pEx/Gal/hRORγ CLBD/HYG pG5luc/blast)
T1 sequence (P51449 267-516): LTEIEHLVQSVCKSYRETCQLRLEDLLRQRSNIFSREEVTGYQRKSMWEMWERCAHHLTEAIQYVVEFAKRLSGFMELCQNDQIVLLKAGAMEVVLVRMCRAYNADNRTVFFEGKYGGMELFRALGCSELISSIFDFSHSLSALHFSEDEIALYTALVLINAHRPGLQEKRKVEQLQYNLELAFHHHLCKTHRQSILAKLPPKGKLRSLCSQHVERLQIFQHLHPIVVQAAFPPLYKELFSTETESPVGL
Assay type: cell-based

Compound	EC50 [nM]
O=C(O)[C@H]1CC[C@H](C(=O)N2CC[C@](c3ccc(OCc4c(F)cccc4C(F)(F)F)cc3)(S(=O)(=O)c3ccc(F)cc3)C2)CC1 [Example 42, (1r,4r)-4-[(3R)-3-(4-{[2-fluoro-6-(trifluoromethyl)phenyl]methoxy}phenyl)-3-(4-fluorobenzenesulfonyl)pyrrolidine-1-carbonyl]cyclohexane-1-carboxylic acid]	47
O=S(=O)(c1ccccc1)C1(c2ccc(OCc3ccccc3)cc2)CCCC1 [Example 6, 1-[1-(benzenesulfonyl)cyclopentyl]-4-(benzyloxy)benzene]	130
O=C(Cc1ccncc1)N1CCC(c2ccc(OCc3ccccc3)cc2)(S(=O)(=O)c2cccc(C(F)(F)F)c2)C1 (stereo not shown) [Example 22, 1-{3-[4-(benzyloxy)phenyl]-3-[3-(trifluoromethyl)benzenesulfonyl]pyrrolidin-1-yl}-2-(pyridin-4-yl)ethan-1-one]	514
O=C(O)[C@H]1CC[C@H](C(=O)N2CC[C@](c3ccc(OCc4c(Cl)cccc4Cl)cc3)(S(=O)(=O)c3ccccc3)C2)CC1 [Example 34, (1r,4r)-4-[(3R)-3-(benzenesulfonyl)-3-{4-[(2,6-dichlorophenyl)methoxy]phenyl}pyrrolidine-1-carbonyl]cyclohexane-1-carboxylic acid]	275
